Test results as given in ChEMBL document CHEMBL1629481, “A regio- and stereoselective 1,3-dipolar cycloaddition for the synthesis of novel spiro-pyrrolothiazolyloxindoles and their antitubercular evaluation” (2010).
In brackets after ≈: the same amount, converted by molar mass.

What follows are molecules tested on Mycobacterium tuberculosis (assay: Antimycobacterial activity against Mycobacterium tuberculosis H37Rv by agar dilution method).
Type: functional
Work on `O=C1Nc2ccc(Cl)cc2[C@]12N1CSC[C@H]1[C@H](c1cccc(Cl)c1Cl)[C@]21Cc2ccccc2C1=O` yielded an MIC of 5.8 µg/mL (≈ 10.7 µM). `O=C1Nc2ccc([N+](=O)[O-])cc2[C@]12N1CSC[C@H]1[C@H](c1ccc(F)cc1)[C@]21Cc2ccccc2C1=O` was tested, and the MIC was 3.1 µg/mL (≈ 6.18 µM). Molecule `COc1ccc([C@H]2[C@@H]3CSCN3[C@@]3(C(=O)Nc4ccc(Cl)cc43)[C@@]23Cc2ccccc2C3=O)cc1` has an MIC of over 49.7 µg/mL. `O=C1Nc2ccccc2[C@]12N1CSC[C@H]1[C@H](c1cccs1)[C@]21Cc2ccccc2C1=O` gave an MIC of 56.2 µg/mL (≈ 126 µM). Work on `Cc1ccccc1[C@H]1[C@@H]2CSCN2[C@@]2(C(=O)Nc3ccc([N+](=O)[O-])cc32)[C@@]12Cc1ccccc1C2=O` yielded an MIC of 25.1 µg/mL (≈ 50.4 µM). `COc1ccc([C@H]2[C@@H]3CSCN3[C@@]3(C(=O)Nc4ccc([N+](=O)[O-])cc43)[C@@]23Cc2ccccc2C3=O)cc1` was tested, and the MIC was 24.3 µg/mL (≈ 47.3 µM). Work on `CO[C@H]1/C=C/O[C@@]2(C)Oc3c(C)c(O)c4c(O)c(c(/C=N/N5CCN(C)CC5)c(O)c4c3C2=O)NC(=O)/C(C)=C\C=C\[C@H](C)[C@H](O)[C@@H](C)[C@@H](O)[C@@H](C)[C@H](OC(C)=O)[C@@H]1C` [RIFAMPIN] yielded an MIC of 0.1 µg/mL (≈ 0.122 µM). For `O=C1Nc2ccc([N+](=O)[O-])cc2[C@]12N1CSC[C@H]1[C@H](c1ccc(Cl)cc1)[C@]21Cc2ccccc2C1=O`, the MIC was 24.1 µg/mL (≈ 46.5 µM). With `O=C1Nc2ccccc2[C@]12N1CSC[C@H]1[C@H](c1ccc([N+](=O)[O-])cc1)[C@]21Cc2ccccc2C1=O` the MIC was 12.9 µg/mL (≈ 26.7 µM). `Cc1ccc([C@H]2[C@@H]3CSCN3[C@@]3(C(=O)Nc4ccc([N+](=O)[O-])cc43)[C@@]23Cc2ccccc2C3=O)cc1` was tested, and the MIC was 25.1 µg/mL (≈ 50.4 µM). `O=C1Nc2ccc(Cl)cc2[C@]12N1CSC[C@H]1[C@H](c1cccs1)[C@]21Cc2ccccc2C1=O` showed an MIC of 52.2 µg/mL (≈ 109 µM). With `O=C1Nc2ccccc2[C@]12N1CSC[C@H]1[C@H](c1ccc(Br)cc1)[C@]21Cc2ccccc2C1=O` the MIC was 24.2 µg/mL (≈ 46.8 µM). `Cc1ccc([C@H]2[C@@H]3CSCN3[C@@]3(C(=O)Nc4ccccc43)[C@@]23Cc2ccccc2C3=O)cc1` gave an MIC of over 55.2 µg/mL. `Cc1ccccc1[C@H]1[C@@H]2CSCN2[C@@]2(C(=O)Nc3ccc(Cl)cc32)[C@@]12Cc1ccccc1C2=O` was tested, and the MIC was 25.7 µg/mL (≈ 52.8 µM). In the case of `NNC(=O)c1ccncc1` [ISONIAZID], the MIC is reported as 0.4 µg/mL (≈ 2.92 µM). Work on `O=C1Nc2ccc([N+](=O)[O-])cc2[C@]12N1CSC[C@H]1[C@H](c1cccc(Cl)c1Cl)[C@]21Cc2ccccc2C1=O` yielded an MIC of 2.8 µg/mL (≈ 5.07 µM). In the case of `COc1ccc([C@H]2[C@@H]3CSCN3[C@@]3(C(=O)Nc4ccccc43)[C@@]23Cc2ccccc2C3=O)cc1`, the MIC is reported as over 53.4 µg/mL. For `O=C1Nc2ccc(Cl)cc2[C@]12N1CSC[C@H]1[C@H](c1ccc(F)cc1)[C@]21Cc2ccccc2C1=O`, the MIC was 12.7 µg/mL (≈ 25.9 µM). Molecule `Cc1ccc([C@H]2[C@@H]3CSCN3[C@@]3(C(=O)Nc4ccc(Cl)cc43)[C@@]23Cc2ccccc2C3=O)cc1` has an MIC of 51.3 µg/mL (≈ 105 µM). With `O=C1Nc2ccc(Cl)cc2[C@]12N1CSC[C@H]1[C@H](c1ccc([N+](=O)[O-])cc1)[C@]21Cc2ccccc2C1=O` the MIC was 12.1 µg/mL (≈ 23.4 µM). With `O=C1Nc2ccc([N+](=O)[O-])cc2[C@]12N1CSC[C@H]1[C@H](c1ccccc1Cl)[C@]21Cc2ccccc2C1=O` the MIC was 12.1 µg/mL (≈ 23.4 µM). Molecule `O=C1Nc2ccc(Cl)cc2[C@]12N1CSC[C@H]1[C@H](c1ccc(Br)cc1)[C@]21Cc2ccccc2C1=O` has an MIC of 11.3 µg/mL (≈ 20.5 µM). `CC[C@@H](CO)NCCN[C@@H](CC)CO` [ETHAMBUTOL] showed an MIC of 7.6 µg/mL (≈ 37.2 µM). Molecule `Cc1ccccc1[C@H]1[C@@H]2CSCN2[C@@]2(C(=O)Nc3ccccc32)[C@@]12Cc1ccccc1C2=O` has an MIC of over 55.2 µg/mL. Work on `O=C1Nc2ccccc2[C@]12N1CSC[C@H]1[C@H](c1ccccc1Cl)[C@]21Cc2ccccc2C1=O` yielded an MIC of 26.4 µg/mL (≈ 55.8 µM). `O=C1Nc2ccc(Cl)cc2[C@]12N1CSC[C@H]1[C@H](c1ccc(Cl)cc1)[C@]21Cc2ccccc2C1=O` showed an MIC of 24.6 µg/mL (≈ 48.5 µM). In the case of `O=C1Nc2ccccc2[C@]12N1CSC[C@H]1[C@H](c1ccc(Cl)cc1)[C@]21Cc2ccccc2C1=O`, the MIC is reported as 52.9 µg/mL (≈ 112 µM). In the case of `O=C1Nc2ccccc2[C@]12N1CSC[C@H]1[C@H](c1cccc(Cl)c1Cl)[C@]21Cc2ccccc2C1=O`, the MIC is reported as 12.3 µg/mL (≈ 24.2 µM). In the case of `O=C1Nc2ccc([N+](=O)[O-])cc2[C@]12N1CSC[C@H]1[C@H](c1ccc(Br)cc1)[C@]21Cc2ccccc2C1=O`, the MIC is reported as 11.1 µg/mL (≈ 19.7 µM). `O=C1Nc2ccccc2[C@]12N1CSC[C@H]1[C@H](c1ccc(F)cc1)[C@]21Cc2ccccc2C1=O` showed an MIC of 13.7 µg/mL (≈ 30 µM). `O=C1Nc2ccc(Cl)cc2[C@]12N1CSC[C@H]1[C@H](c1ccccc1Cl)[C@]21Cc2ccccc2C1=O` showed an MIC of 12.3 µg/mL (≈ 24.2 µM). Work on `O=C1Nc2ccc([N+](=O)[O-])cc2[C@]12N1CSC[C@H]1[C@H](c1ccc([N+](=O)[O-])cc1)[C@]21Cc2ccccc2C1=O` yielded an MIC of 5.9 µg/mL (≈ 11.2 µM).
